# Tests used:
# Solubility = assay type: physicochemical
# [1] = system: Staphylococcus aureus A-9537; assay: MIC, standard tube dilution procedure; assay type: cell-based; settings: A9537; in vitro, Staphylococcus aureus A-9537; read-out: MIC
# Candida krusei A-15052 = assay: MIC, standard tube dilution procedure; assay type: cell-based; settings: Pichia kudriavzevii, A15052; in vitro, Candida krusei A-15052; read-out: MIC
# L-1210 leukemia [2] = assay: L-1210 mouse leukemia, purified compounds, BDF1 female mice
# Procedure: Inoculum: 10^6 ascitic cells, i.p. into BDF1 female mice
# Treatment: i.p. in 0.5 ml. volume
# Evaluation: MST = median survival time in days; %T/C = MST treated/MST
# (prolongation of host survival)
# Escherichia coli A-21780 = assay: MIC, standard tube dilution procedure; assay type: cell-based; settings: A21780; in vitro, Escherichia coli A-21780; read-out: MIC
# Candida albicans A-9540 = assay: MIC, standard tube dilution procedure; assay type: cell-based; settings: A9540; in vitro, Candida albicans A-9540; read-out: MIC
# [3] = system: Trichophyton mentagrophytes A-9870; assay: MIC, standard tube dilution procedure; assay type: cell-based; settings: A9870; in vitro, Trichophyton mentagrophytes A-9870; read-out: MIC
# [4] = system: Klebsiella pneumoniae A-9977; assay: MIC, standard tube dilution procedure; assay type: cell-based; settings: A9977; in vitro, Klebsiella pneumoniae A-9977; read-out: MIC
# [5] = system: Candida tropicalis A-15051; assay: MIC, standard tube dilution procedure; assay type: cell-based; settings: A15051; in vitro, Candida tropicalis A-15051; read-out: MIC
# [6] = system: Streptococcus pyogenes A-9604; assay: MIC, standard tube dilution procedure; assay type: cell-based; settings: A9604; in vitro, Streptococcus pyogenes A-9604; read-out: MIC
# Escherichia coli A-15119 = assay: MIC, standard tube dilution procedure; assay type: cell-based; settings: A15119; in vitro, Escherichia coli A-15119; read-out: MIC
# Proteus mirabilis A-9900 = assay: MIC, standard tube dilution procedure; assay type: cell-based; settings: A9900; in vitro, Proteus mirabilis A-9900; read-out: MIC
# [7] = activity of column fractions of bohemic acid complex; settings: Example 8 large scale fractionation
# Procedure: Sephadex LH-20 soaked for 68 hours in chloroform was slurry packed into a Pharmacia SR 25/100 column (25 mm. I.D. × 100 cm. height) equipped with adjustable teflon tips at each end. The column was packed so as to be completely filled from tip to tip, an effective bed height of 90-95 cm. Bohemic acid complex (500 mg.) was dissolved in 10 ml. chloroform and applied to the column which was then allowed to develop with chloroform by downflow at a take-off rate of 1 ml./min. Eluted liquid was collected in 6 ml. cuts in a fraction collector. Samplings of even numbered tubes were diluted 80-fold with chloroform and read in a Bausch and Lomb Spectronic 20 colorimeter at 490 mμ. Four distinct bands of anthracycline pigments were noted as follows:
# The solids obtained were chromatographed on Brinkmann 60F254 silica gel thin layer plates using an 80:20 toluene:methanol solvent system. […] The second band gave a characteristic pinkish red zone at about Rf =0.75. […] The third fraction to elute gave a single zone with Rf ~0.3. […] The final band to elute gave a zone at Rf ~0.3 and comprised mainly marcellomycin. […]
# A 6 inch (diameter) × 77 inch (height) glass column was equipped at the base with a no clog filter on top of which was placed a layer of glass wool followed by a circular polyethylene frit. […] Aliquots of every fifth fraction were diluted and analyzed as described in Example 7. […]
# L-1210 leukemia [8] = assay: transplanted mouse leukemia L-1210 (ascitic); settings: single i.p. injection Day 1
# Procedure: (§1) The compounds of the present invention were also tested against various transplantable rodent tumer systems.
# (§2) Single injection Day 1 intraperitoneally.?
# (§3) T/C percent MST=median survival time in days: Treated/Control × 100
# [9] = system: Streptococcus pneumoniae A-9585; assay: MIC, standard tube dilution procedure; assay type: cell-based; settings: A9585; in vitro, Streptococcus pneumoniae A-9585; read-out: MIC
# [10] = system: Cryptococcus neoformans A-1503; assay: MIC, standard tube dilution procedure; assay type: cell-based; settings: A1503; in vitro, Cryptococcus neoformans A-1503; read-out: MIC
# [11] = acute intraperitoneal LD50 in mice; settings: mouse, in vivo, ip
# [12] = system: Staphylococcus aureus A-9497; assay: MIC, standard tube dilution procedure; assay type: cell-based; settings: A9497; in vitro, Staphylococcus aureus A-9497; read-out: MIC
# P-388 leukemia = assay: transplanted mouse leukemia P-388 (ascitic); settings: single i.p. injection Day 1
# Procedure: as §1, §2, §3
# [13] = 3.2 mg/kg/day i.p., Day 1, 1 injection
# [14] = 3.2 mg/kg/day i.p., Day 1→5, 5 injections
# [15] = 6.4 mg/kg/day i.p., Day 1, 1 injection
# [16] = 6.4 mg/kg/day i.p., Day 1→5, 5 injections
# [17] = 12.8 mg/kg/day i.p., Day 1, 1 injection
# [18] = .2 mg/kg/day i.p., Day 1→5, 5 injections
# [19] = .4 mg/kg/day i.p., Day 1, 1 injection
# [20] = .4 mg/kg/day i.p., Day 1→5, 5 injections
# [21] = .8 mg/kg/day i.p., Day 1, 1 injection
# [22] = .8 mg/kg/day i.p., Day 1→5, 5 injections
smiles,measurement,setting,value
CC[C@@]1(O)C[C@H](O[C@H]2C[C@H](N(C)C)[C@H](O[C@H]3C[C@H](O)[C@H](O)[C@H](C)O3)[C@H](C)O2)c2c(cc3c(c2O)C(=O)c2c(O)ccc(O)c2C3=O)[C@H]1C(=O)OC [musettamycin],Solubility,Solubility; organic solvents,Soluble in most organic solvents
same,Solubility,"Solubility; water, aliphatic hydrocarbons and ether","insoluble in water, aliphatic hydrocarbons and ether"
same,MIC,[1],1 µg/mL
same,MIC,Candida krusei A-15052,125 µg/mL
same,Average Weight Change in g.,L-1210 leukemia [2]; [13],+0.3 g.
same,MST %T/C,L-1210 leukemia [2]; [13],129%
same,MST Days,L-1210 leukemia [2]; [13],9.0 days
same,Average Weight Change,L-1210 leukemia [2]; [14],-1.3 g
same,MST %T/C,L-1210 leukemia [2]; [14],157%
same,MST Days,L-1210 leukemia [2]; [14],11.0 days
same,Average Weight Change in g.,L-1210 leukemia [2]; [15],+0.5 g.
same,MST %T/C,L-1210 leukemia [2]; [15],143%
same,MST Days,L-1210 leukemia [2]; [15],10.0 days
same,Average Weight Change,L-1210 leukemia [2]; [16],-1.5 g
same,MST %T/C,L-1210 leukemia [2]; [16],86%
same,MST Days,L-1210 leukemia [2]; [16],6.0 days
same,Average Weight Change,L-1210 leukemia [2]; [17],-0.6 g
same,MST %T/C,L-1210 leukemia [2]; [17],150%
same,MST Days,L-1210 leukemia [2]; [17],10.5 days
same,Average Weight Change in g.,L-1210 leukemia [2]; [18],+1.8 g.
same,MST %T/C,L-1210 leukemia [2]; [18],129%
same,MST Days,L-1210 leukemia [2]; [18],9.0 days
same,Average Weight Change in g.,L-1210 leukemia [2]; [19],+1.3 g.
same,MST %T/C,L-1210 leukemia [2]; [19],114%
same,MST Days,L-1210 leukemia [2]; [19],8.0 days
same,Average Weight Change in g.,L-1210 leukemia [2]; [20],+0.6 g.
same,MST %T/C,L-1210 leukemia [2]; [20],129%
same,MST Days,L-1210 leukemia [2]; [20],9.0 days
same,Average Weight Change in g.,L-1210 leukemia [2]; [21],+1.2 g.
same,MST %T/C,L-1210 leukemia [2]; [21],121%
same,MST Days,L-1210 leukemia [2]; [21],8.5 days
same,Average Weight Change in g.,L-1210 leukemia [2]; [22],+0.4 g.
same,MST %T/C,L-1210 leukemia [2]; [22],136%
same,MST Days,L-1210 leukemia [2]; [22],9.5 days
same,MIC,Escherichia coli A-21780,32 µg/mL
same,MIC,Candida albicans A-9540,125 µg/mL
same,MIC,[3],> 125 µg/mL
same,MIC,[4],> 125 µg/mL
same,MIC,[5],63 µg/mL
same,MIC,[6],0.06 µg/mL
same,MIC,Escherichia coli A-15119,> 125 µg/mL
same,MIC,Proteus mirabilis A-9900,> 125 µg/mL
same,activity of fraction,[7],active
same,"Avg. wt. Difference (T-C, g.)",L-1210 leukemia [8]; 3.2 mg/kg,-2.5 g
same,T/C Percent MST,L-1210 leukemia [8]; 3.2 mg/kg,120%
same,"Avg. wt. Difference (T-C, g.)",L-1210 leukemia [8]; 6.4 mg/kg,-2.5 g
same,T/C Percent MST,L-1210 leukemia [8]; 6.4 mg/kg,140%
same,"Avg. wt. Difference (T-C, g.)",L-1210 leukemia [8]; .8 mg/kg,-1.1 g
same,T/C Percent MST,L-1210 leukemia [8]; .8 mg/kg,107%
same,MIC,[9],0.06 µg/mL
same,MIC,[10],63 µg/mL
same,LD50,[11],9.8 to 21.1 mg/kg
same,MIC,[12],0.5 µg/mL
same,"Avg. wt. Difference (T-C, g.)",P-388 leukemia; 3.2 mg/kg,-3.0 g
same,T/C Percent MST,P-388 leukemia; 3.2 mg/kg,145%
same,"Avg. wt. Difference (T-C, g.)",P-388 leukemia; 6.4 mg/kg,-3.4 g
same,T/C Percent MST,P-388 leukemia; 6.4 mg/kg,160%
same,"Avg. wt. Difference (T-C, g.)",P-388 leukemia; .2 mg/kg,-2.1 g
same,T/C Percent MST,P-388 leukemia; .2 mg/kg,120%
same,"Avg. wt. Difference (T-C, g.)",P-388 leukemia; .4 mg/kg,-1.6 g
same,T/C Percent MST,P-388 leukemia; .4 mg/kg,135%
same,"Avg. wt. Difference (T-C, g.)",P-388 leukemia; .8 mg/kg,-2.0 g
same,T/C Percent MST,P-388 leukemia; .8 mg/kg,140%
